Test results reported in ChEMBL document CHEMBL1201862, “PubChem BioAssay data set” (2004).
Activity calls are given as the source filed them.

What was measured:
[1] = AlphaScreen signal interference compounds, dose response, artefact control for ARNT-TACC3 interaction inhibitor project, biochemical, luminescence, cherry-pick (AID 651705); type: functional;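 also: AlphaScreen bead proximity signal that flags compounds interfering with the detection technology; potency reflects signal decrease which marks the compound as an assay artifact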
Cytochrome P450 2C9 = Cytochrome P450 2C9 (Homo sapiens, UniProt P11712)
Cytochrome P450 2C19 = Cytochrome P450 2C19 (Homo sapiens, UniProt P33261); experiment: Cytochrome panel assay with activity outcomes. Panel member name: p450-cyp2c19 Compounds with AC50 equal or less than 10 uM are considered active; type: functional; conditions: read-out: AC50
[2] = ARNT/TACC3 interaction disruptors, potency, confirmation, biochemical, AlphaScreen, cherry-picked samples (AID 651703); type: functional, Homo sapiens;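 also: His-tagged ARNT PAS-B domain paired with GST-TACC3 E629A dimer coactivator fragment; potency of inhibitors that break up the complex and lower AlphaScreen signal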
Cytochrome P450 2D6 = Cytochrome P450 2D6 (Homo sapiens, UniProt P10635);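 also: CYP2D6 member of a cytochrome P450 panel assay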
[3] = biological target: T1, Tyrosine-protein phosphatase non-receptor type 22 (Homo sapiens, UniProt Q9Y2R2); experiment: LYP phosphatase inhibition for selectivity, dose response, selectivity assay for LMPTP inhibitor project, biochemical, fluorescence, LYP catalytic domain (AID 652006); type: functional; conditions: read-out: IC50_Mean
T1 sequence (Q9Y2R2 whole entry): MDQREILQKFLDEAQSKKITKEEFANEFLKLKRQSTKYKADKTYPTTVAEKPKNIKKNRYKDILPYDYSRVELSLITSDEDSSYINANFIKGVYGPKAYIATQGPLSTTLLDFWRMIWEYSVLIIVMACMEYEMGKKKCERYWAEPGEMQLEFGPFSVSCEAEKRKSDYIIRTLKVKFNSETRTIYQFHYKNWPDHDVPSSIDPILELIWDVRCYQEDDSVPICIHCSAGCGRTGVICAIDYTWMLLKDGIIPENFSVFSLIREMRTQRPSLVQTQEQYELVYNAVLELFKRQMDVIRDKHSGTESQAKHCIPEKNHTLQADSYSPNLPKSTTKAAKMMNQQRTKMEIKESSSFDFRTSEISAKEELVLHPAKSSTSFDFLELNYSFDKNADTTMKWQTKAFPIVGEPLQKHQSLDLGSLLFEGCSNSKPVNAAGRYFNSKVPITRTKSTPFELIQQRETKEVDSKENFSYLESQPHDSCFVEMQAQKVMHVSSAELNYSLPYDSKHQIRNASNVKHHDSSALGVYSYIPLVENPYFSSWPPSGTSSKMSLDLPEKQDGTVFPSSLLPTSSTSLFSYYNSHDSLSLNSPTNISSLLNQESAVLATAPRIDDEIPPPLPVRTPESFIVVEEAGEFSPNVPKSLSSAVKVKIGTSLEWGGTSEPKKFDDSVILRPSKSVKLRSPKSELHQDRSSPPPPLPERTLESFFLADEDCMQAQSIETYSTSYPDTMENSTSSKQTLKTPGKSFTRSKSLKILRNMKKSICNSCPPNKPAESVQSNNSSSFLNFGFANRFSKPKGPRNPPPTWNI

[4] = biological target: T2, Short transient receptor potential channel 4 (Mus musculus, UniProt Q9QUQ5); experiment: mouse TRPC4 channel activators, dose response, cell-based, HEK293 TRPC4/mu-opioid, Fluo-4 calcium (AID 434937); type: functional
T2 sequence (Q9QUQ5 whole entry): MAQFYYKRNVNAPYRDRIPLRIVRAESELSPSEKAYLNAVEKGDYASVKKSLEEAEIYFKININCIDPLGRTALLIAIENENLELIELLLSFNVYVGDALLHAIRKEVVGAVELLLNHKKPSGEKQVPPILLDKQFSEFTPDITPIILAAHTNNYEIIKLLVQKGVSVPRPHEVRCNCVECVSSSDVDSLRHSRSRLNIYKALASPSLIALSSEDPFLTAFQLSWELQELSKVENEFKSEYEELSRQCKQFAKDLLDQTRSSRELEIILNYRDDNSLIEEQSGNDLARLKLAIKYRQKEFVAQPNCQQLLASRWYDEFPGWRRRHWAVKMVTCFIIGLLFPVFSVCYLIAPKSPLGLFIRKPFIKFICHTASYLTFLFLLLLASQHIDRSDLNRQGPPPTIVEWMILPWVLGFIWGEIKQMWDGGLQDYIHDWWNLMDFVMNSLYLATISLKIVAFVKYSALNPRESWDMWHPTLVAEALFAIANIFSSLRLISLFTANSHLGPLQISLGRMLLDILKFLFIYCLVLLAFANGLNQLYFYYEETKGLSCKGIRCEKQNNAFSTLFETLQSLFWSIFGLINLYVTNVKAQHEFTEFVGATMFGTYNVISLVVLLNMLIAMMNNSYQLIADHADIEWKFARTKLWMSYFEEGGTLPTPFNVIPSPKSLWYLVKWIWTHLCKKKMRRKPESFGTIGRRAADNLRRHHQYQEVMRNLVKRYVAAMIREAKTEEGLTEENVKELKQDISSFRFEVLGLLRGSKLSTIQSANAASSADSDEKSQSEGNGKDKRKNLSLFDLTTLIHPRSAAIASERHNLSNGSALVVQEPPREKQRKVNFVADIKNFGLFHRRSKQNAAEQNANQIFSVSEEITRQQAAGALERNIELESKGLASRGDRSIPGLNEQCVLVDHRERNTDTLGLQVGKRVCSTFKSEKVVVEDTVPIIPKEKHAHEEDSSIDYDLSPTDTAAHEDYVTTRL

[5] = biological target: T3, Low molecular weight phosphotyrosine protein phosphatase (Homo sapiens, UniProt P24666); type: functional; conditions: read-out: IC50_Mean;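 also: Dose-response confirmation assay measuring inhibition of LMPTP enzyme activity by fluorescence intensity read-out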
T3 sequence (P24666 whole entry): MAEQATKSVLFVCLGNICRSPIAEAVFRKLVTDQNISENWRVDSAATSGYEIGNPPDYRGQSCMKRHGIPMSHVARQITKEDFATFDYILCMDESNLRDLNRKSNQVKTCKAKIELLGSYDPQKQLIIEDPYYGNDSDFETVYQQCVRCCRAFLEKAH

[6] = biological target: Ras and Rab interactor 1/Tyrosine-protein kinase ABL1 (Homo sapiens, UniProt P00519+Q13671); type: functional;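 also: biochemical TR-FRET dose-response test measuring inhibition of binding between Rin1 and Abl proteins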
[7] = biological target: Photoreceptor-specific nuclear receptor (Homo sapiens, UniProt Q9Y5X4); type: functional, cell-based;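 also: CHO-S cells with Gal4-NCOR and VP16-NR2E3 two-hybrid luciferase reporter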
[8] = nonselective inhibitors of cellular cAMP signaling, dose response, counter-screen for MC4R biased antagonist project, cell-based, TR-FRET cAMP detection (AID 602305); type: functional;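 also: U2OS cells stimulated with forskolin near its EC80 as the cAMP inducer; potency is for inhibition of forskolin-stimulated cAMP signaling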
Melanocortin receptor 4 = Melanocortin receptor 4 (Homo sapiens, UniProt P32245); experiment: MC4R antagonist potency on cAMP, dose response, cell-based, TR-FRET, biased antagonists (AID 602298); type: functional;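 also: antagonist potency against agonist-stimulated cAMP production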
[9] = biological target: Luciferin 4-monooxygenase (Photinus pyralis, UniProt P08659); experiment: Counter Screen for Luciferase-based Assay Positives. [Related pubchem assays: 620, 618, 411 ]
HT-1080 = experiment: cytotoxicity in HT1080 fibrosarcoma cells, cell-based, fluorescence readout (AID 620); type: functional; conditions: Homo sapiens
Streptococcus = experiment: Group A Streptococcus viability loss, dose response, counter-screen for streptokinase expression inhibitor project, luminescence, BacTiterGlo (AID 1915); type: functional, organism-based;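 also: potency for reduction of bacterial viability or growth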
[10] = inhibitors of intracellular T. cruzi replication, confirmation, NIH3T3 host cells, beta-gal luminescence (AID 2044); type: functional, cell-based;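 also: intracellular parasites grown in NIH/3T3 mouse fibroblasts as host cells; luminescent beta-galactosidase reporter signal from transgenic T. cruzi replicating inside host cells; inhibitors lower the luminescence signal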
[11] = tested on: Streptococcus sp. 'group A'; experiment: growth inhibition of control SK(-) GAS strain, dose response, counter-screen for streptokinase expression inhibitor project, luminescence, kanamycin, BacTiterGlo, confirmation (AID 1900); type: functional, organism-based
[12] = cytotoxicity toward NIH3T3 fibroblasts, dose response, counter-screen, cell-based, ATP luminescence, mouse fibroblasts (AID 2010); type: functional;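 also: cells exposed to compound for about 90 hours before reading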
[13] = HEp-2 cell cytotoxicity, dose response, cytotoxicity control for RSV inhibitor project, HTS (AID 2410); type: functional; conditions: human respiratory syncytial virus
[14] = Luminescence Cell-Based Dose Retest to Confirm Inhibitors of Cancer Stem Cells. [Related pubchem assays (depositor defined):AID2717, AID2721]; type: functional; conditions: Homo sapiens
Streptokinase A = biological target: T4, Streptokinase A (Streptococcus pyogenes serotype M1, UniProt P10520); experiment: S. pyogenes streptokinase expression inhibitors, potency, dose response, plasminogen activation absorbance, OD405 (AID 1914); type: functional, Streptococcus pyogenes M1 GAS;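 also: secreted streptokinase activity via plasminogen activation per viability signal from cell pellet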
T4 sequence (P10520 whole entry): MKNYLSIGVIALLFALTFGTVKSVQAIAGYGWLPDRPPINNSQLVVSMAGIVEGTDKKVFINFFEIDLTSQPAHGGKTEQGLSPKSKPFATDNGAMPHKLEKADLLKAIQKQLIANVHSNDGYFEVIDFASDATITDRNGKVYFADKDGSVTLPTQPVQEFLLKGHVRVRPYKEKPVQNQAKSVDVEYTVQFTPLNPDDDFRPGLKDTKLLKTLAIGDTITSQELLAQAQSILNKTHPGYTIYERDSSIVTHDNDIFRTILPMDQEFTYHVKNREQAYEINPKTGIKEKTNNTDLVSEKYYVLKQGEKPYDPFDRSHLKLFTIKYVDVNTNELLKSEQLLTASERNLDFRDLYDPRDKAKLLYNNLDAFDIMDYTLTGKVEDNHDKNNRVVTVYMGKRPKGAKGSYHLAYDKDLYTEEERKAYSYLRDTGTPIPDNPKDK

[15] = C. albicans growth with fluconazole, confirmation, fluorescence, retest (AID 2467); type: functional, cell-based
[16] = biological target: T5, Carboxy-terminal domain RNA polymerase II polypeptide A small phosphatase 1 (Homo sapiens, UniProt Q9GZU7); experiment: inhibitors of CTDSP1, concentration-response testing, biochemical assay, absorbance-based, actives from ultra-high-throughput screening (AID 540297); type: functional
T5 sequence (Q9GZU7 whole entry): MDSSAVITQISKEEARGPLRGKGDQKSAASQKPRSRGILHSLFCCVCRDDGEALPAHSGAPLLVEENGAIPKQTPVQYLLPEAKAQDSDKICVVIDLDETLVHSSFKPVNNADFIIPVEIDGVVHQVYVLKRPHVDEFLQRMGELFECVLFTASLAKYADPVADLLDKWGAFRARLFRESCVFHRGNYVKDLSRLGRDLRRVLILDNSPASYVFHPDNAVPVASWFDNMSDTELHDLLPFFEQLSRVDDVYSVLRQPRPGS

Prothrombin = Prothrombin (Bos taurus, UniProt P00735); experiment: thrombin inhibition, dose response, biochemical, fluorescence polarization, uHTS hits (AID 602369); type: functional
[17] = biological target: 26S proteasome non-ATPase regulatory subunit 14 (Homo sapiens, UniProt O00487); experiment: inhibition of proteasome subunit RPN11 – biochemical, fluorescence polarization, uHTS hits, confirmation (AID 602368); type: functional
[18] = biological target: 72 kDa type IV collagenase (Homo sapiens, UniProt P08253); experiment: Dose Response validation of uHTS RPN11 inhibitor hits using a MMP-2 Fluorescence assay.; type: functional
[19] = biological target: T6, Rac GTPase-activating protein 1 (Homo sapiens, UniProt Q9H0H5); experiment: MgcRacGAP GTPase-activating activity inhibitors, confirmation, biochemical, ADP Hunter fluorescence, primary and confirmatory (AID 624330); type: functional
T6 sequence (Q9H0H5 whole entry): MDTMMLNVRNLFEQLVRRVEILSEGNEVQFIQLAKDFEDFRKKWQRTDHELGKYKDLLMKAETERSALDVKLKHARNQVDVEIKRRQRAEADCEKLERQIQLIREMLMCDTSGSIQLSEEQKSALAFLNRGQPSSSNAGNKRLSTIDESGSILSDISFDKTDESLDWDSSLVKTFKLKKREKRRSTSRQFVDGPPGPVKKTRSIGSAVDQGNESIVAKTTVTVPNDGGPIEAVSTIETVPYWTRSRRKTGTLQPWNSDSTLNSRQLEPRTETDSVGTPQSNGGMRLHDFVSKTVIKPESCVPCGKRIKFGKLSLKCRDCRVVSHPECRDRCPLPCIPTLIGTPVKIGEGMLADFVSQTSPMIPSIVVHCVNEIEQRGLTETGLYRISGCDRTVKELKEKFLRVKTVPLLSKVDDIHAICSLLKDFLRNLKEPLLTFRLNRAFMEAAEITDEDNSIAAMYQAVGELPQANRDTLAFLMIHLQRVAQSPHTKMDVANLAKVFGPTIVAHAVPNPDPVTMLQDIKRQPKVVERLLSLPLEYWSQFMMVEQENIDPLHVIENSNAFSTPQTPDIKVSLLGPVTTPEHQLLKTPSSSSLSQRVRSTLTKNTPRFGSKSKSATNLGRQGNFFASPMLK

[20] = NIH-3T3 fibroblast cytotoxicity, dose response, cytotoxicity control, cell-based, fluorescence, Alamar Blue, secondary assay (AID 2327); type: functional;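 also: NIH-3T3 mouse fibroblasts cultured with fluconazole at 8 µg/mL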

Chain of Photoreceptor-specific nuclear receptor (Q9Y5X4 whole entry, the tested form may be a part): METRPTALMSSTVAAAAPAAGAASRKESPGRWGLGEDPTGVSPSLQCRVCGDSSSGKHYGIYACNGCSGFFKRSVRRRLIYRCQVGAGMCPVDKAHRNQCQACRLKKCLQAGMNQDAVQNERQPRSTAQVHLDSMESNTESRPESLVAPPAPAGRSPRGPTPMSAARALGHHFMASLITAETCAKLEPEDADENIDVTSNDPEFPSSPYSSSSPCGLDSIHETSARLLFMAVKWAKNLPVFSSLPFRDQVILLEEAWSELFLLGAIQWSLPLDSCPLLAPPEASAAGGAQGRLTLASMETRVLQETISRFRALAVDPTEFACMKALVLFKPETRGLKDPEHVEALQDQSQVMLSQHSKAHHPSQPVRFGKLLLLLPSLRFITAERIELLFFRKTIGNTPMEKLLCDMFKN
Chain of Ras and Rab interactor 1/Tyrosine-protein kinase ABL1 (P00519 whole entry, the tested form may be a part): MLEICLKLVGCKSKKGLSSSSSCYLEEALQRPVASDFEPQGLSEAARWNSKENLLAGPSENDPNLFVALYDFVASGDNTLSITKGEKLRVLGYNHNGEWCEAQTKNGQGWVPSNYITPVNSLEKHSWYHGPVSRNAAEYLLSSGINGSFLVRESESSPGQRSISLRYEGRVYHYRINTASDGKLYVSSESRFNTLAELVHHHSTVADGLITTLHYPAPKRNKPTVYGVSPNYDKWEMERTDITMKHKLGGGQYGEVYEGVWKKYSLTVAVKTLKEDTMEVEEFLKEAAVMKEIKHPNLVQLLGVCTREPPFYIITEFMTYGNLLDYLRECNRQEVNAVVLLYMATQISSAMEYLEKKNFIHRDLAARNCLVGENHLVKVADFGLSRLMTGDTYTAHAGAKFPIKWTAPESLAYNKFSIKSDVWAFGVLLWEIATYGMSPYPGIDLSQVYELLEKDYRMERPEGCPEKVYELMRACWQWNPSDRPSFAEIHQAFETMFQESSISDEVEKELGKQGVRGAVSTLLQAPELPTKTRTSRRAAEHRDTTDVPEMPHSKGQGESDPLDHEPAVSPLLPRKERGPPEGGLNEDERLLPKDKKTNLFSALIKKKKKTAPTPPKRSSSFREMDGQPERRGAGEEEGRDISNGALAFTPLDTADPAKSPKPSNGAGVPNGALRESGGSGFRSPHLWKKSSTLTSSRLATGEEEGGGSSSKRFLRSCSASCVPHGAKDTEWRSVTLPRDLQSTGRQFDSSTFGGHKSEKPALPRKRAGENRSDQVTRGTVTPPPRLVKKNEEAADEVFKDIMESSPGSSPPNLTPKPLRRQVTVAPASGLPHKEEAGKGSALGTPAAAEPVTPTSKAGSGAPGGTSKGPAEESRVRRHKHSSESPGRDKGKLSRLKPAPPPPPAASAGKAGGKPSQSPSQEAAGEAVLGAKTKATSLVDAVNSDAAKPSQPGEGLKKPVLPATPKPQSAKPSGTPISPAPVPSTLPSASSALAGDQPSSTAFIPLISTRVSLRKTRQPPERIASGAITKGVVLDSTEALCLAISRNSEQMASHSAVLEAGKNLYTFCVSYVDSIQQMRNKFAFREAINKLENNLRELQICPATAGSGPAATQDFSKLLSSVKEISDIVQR
Chain of Ras and Rab interactor 1/Tyrosine-protein kinase ABL1 (Q13671 whole entry, the tested form may be a part): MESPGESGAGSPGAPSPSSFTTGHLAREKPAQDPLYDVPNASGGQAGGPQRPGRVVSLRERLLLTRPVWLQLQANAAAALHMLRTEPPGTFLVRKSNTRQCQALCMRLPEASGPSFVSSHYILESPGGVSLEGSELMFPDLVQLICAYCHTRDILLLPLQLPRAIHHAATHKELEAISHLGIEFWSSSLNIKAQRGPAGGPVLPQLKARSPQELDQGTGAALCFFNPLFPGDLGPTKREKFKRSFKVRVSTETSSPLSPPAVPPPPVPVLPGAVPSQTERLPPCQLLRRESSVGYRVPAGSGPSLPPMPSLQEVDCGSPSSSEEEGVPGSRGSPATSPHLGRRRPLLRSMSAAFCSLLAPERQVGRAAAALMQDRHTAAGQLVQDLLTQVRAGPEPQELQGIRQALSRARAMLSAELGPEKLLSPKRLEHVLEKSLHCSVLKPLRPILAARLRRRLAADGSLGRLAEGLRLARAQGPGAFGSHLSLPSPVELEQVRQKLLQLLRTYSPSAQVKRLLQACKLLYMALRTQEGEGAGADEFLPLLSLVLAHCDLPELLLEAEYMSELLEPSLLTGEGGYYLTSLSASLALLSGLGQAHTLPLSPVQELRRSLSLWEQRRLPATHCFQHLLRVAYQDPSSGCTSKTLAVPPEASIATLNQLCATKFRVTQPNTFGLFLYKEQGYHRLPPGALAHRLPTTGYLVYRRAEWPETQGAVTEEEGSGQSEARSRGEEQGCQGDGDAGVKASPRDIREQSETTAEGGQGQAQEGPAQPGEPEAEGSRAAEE
Chain of Melanocortin receptor 4 (P32245 whole entry): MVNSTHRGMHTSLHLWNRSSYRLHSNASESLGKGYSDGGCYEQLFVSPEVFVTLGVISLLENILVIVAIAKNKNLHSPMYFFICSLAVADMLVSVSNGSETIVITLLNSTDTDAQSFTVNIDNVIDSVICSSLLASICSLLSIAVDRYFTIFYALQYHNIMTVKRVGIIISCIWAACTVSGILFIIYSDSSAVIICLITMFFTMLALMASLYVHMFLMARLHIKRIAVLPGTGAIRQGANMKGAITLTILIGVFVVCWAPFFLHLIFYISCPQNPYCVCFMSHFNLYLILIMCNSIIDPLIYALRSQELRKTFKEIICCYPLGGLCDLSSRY
Chain of Cytochrome P450 2C19 (P33261 whole entry, the tested form may be a part): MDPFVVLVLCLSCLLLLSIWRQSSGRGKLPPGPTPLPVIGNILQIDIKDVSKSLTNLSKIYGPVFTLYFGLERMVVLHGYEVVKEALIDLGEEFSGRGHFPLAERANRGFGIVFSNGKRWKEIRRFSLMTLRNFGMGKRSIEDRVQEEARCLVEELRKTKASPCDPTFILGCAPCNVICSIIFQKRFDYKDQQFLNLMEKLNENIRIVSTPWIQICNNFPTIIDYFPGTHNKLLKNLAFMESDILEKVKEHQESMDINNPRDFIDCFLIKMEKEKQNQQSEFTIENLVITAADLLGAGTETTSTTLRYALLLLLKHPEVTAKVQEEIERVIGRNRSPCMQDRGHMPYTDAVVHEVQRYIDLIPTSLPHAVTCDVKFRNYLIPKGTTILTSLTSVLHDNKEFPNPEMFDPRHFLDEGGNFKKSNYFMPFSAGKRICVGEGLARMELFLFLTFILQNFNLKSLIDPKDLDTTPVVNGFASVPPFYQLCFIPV
Chain of Cytochrome P450 2D6 (P10635 whole entry, the tested form may be a part): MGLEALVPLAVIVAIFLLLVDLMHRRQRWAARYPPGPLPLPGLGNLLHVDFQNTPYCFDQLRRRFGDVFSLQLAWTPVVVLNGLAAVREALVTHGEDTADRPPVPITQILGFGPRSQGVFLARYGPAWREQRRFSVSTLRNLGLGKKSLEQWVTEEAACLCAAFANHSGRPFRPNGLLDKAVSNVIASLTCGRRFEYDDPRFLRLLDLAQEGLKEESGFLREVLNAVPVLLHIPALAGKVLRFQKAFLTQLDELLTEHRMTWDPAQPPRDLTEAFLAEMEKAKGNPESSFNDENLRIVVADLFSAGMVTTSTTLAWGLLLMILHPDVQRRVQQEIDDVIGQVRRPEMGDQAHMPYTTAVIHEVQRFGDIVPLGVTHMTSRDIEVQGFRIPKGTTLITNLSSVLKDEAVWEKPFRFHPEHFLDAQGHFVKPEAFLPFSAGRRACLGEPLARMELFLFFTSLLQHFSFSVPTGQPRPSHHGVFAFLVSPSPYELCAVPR
Chain of Luciferin 4-monooxygenase (P08659 whole entry): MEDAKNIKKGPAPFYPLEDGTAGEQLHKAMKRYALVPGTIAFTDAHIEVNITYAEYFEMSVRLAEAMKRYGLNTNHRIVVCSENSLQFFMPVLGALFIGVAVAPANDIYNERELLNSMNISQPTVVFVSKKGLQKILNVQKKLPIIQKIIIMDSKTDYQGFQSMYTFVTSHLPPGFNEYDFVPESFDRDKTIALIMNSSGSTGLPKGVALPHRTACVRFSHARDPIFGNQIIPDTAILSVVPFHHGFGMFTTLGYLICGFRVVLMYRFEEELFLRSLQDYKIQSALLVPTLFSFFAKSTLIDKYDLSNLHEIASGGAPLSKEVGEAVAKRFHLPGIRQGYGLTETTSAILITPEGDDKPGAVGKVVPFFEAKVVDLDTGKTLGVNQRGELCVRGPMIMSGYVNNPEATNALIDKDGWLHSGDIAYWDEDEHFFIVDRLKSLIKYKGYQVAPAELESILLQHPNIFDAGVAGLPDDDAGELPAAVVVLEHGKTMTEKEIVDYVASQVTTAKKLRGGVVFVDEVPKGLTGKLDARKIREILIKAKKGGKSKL
Chain of 72 kDa type IV collagenase (P08253 whole entry): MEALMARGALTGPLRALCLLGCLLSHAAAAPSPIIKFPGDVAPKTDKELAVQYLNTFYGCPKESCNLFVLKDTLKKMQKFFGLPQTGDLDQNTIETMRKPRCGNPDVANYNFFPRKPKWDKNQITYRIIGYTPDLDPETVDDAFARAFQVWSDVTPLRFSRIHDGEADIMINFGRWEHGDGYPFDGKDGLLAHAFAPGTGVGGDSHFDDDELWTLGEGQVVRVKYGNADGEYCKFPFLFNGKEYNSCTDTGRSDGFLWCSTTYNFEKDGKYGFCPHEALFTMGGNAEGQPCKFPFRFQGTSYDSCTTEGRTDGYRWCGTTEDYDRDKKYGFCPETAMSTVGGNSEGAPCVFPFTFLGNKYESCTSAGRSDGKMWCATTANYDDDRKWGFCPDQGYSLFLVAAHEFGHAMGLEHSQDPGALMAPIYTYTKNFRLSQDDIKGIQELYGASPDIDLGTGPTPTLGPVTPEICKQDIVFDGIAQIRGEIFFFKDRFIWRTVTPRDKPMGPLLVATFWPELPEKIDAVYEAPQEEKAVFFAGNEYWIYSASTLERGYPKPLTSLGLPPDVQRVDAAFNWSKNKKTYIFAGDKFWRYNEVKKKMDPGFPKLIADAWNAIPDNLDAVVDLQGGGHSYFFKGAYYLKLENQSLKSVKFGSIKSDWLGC

## Cc1ccccc1N1C(=O)NC(=O)/C(=C\NNC(=O)c2ccncc2)C1=O
[1]
  AC50: 114 µM (active)

## CCCN(C(=O)Cc1n[nH]c(N)n1)C1(C(=O)Nc2ccccc2C)CCCCC1
Cytochrome P450 2C9
  AC50: 0.224 µM (inconclusive)
Cytochrome P450 2C19
  AC50: 20 µM (inconclusive)
[2]
  AC50: 90.8 µM (active)
Cytochrome P450 2D6
  AC50: 17.8 µM (inconclusive)

## CC(Nc1nc(N2CCNCC2)nc2ccccc12)c1ccccc1 (centres undefined)
[3]
  IC50: 37.9 µM (inactive)
[4]
  EC50: 5.31 µM (active)
[5]
  IC50: 13.8 µM (active)

## CCCCSCc1[nH]c(O)nc1C(=O)CCCCC(=O)OCC
[6]
  IC50: 4.76 µM (active)

## Cc1cc(NC(=O)CC(C)C)c(=O)n(Cc2ccccc2F)c1
[1]
  AC50: 130 µM (active)

## Cc1nc2ccc(S(=O)(=O)Nc3cccc(-c4nc5cccnc5s4)c3)cc2s1
[7]
  IC50: 2.01 µM (active)

## N#Cc1cc2c(nc1SCC(=O)Nc1nccs1)CCCCC2
[8]
  IC50: 14.9 µM (inactive)
Melanocortin receptor 4
  IC50: 11.8 µM (inactive)
[9]
  EC50: > 100 µM (not active)
HT-1080
  EC50: > 50 µM (not active)

## CC(C)C1C(c2ccccc2)N(C)C(c2ccccc2)CC1(O)c1ccccc1 (centres undefined)
[8]
  IC50: > 64.6 µM (inactive)
Melanocortin receptor 4
  IC50: > 64.6 µM (inactive)
Streptococcus
  EC50: 7.03 µM (active)
[10]
  EC50: 2.43 µM (active)
[11]
  EC50: 1.55 µM (active)
[12]
  EC50: > 60 µM (not active)
[13]
  CC50: 25.3 µM (active)
[14]
  AC50: 1.9 µM (active)
Streptokinase A
  EC50: 2.22 µM (active)

## O=C(Nc1cccc(OC(F)(F)F)c1)C1Cc2c(-c3ccc4c(c3)OCO4)ccnc2O1 (centres undefined)
[7]
  IC50: 3.19 µM (active)

## CN(CCc1ccccc1)C(=O)c1ccc(NC(=O)Cc2ccc(NC(=O)C3CCN(C(=O)C4CCC4)CC3)cc2)cc1
[6]
  IC50: 16.9 µM (inactive)

## COc1ccc(O)c(/C=N/NC(=O)c2c(C)nnn2-c2nonc2N)c1
[15]
  EC50: > 38 µM (not active)
[16]
  IC50: 6.12 µM (active)
Prothrombin
  IC50: 54.6 µM (active)
[17]
  IC50: 13.1 µM (active)
[18]
  IC50: > 100 µM (inactive)
[19]
  IC50: 79.7 µM (active)
[20]
  EC50: > 150 µM (inconclusive)

## C/C(CC(=O)Nc1ccc(F)cc1)=N\NC(=O)c1ccccn1
[2]
  AC50: 89.2 µM (active)
